Data set [1] has as its target HSD17B13 (Homo sapiens (Human), UniProt Q7Z5P4). Description: HSD17B13 enzymatic inhibition assay (150 nM or 50 nM HSD17B13). It counts as biochemical. Particulars: 50 nM HSD17B13; read-out: Inhibition of 50 nM of HSD17B13 IC50.
Data set [2] can be described thus: Microsome stability assay, mouse liver microsomes. The format is in vitro ADME. Particulars: 1 μM compound, 0.5 mg/mL microsomal protein; for microsomal CLint at 1 h, 1 µM / half-life at 1 h, 1 µM / microsomal CLint at 1 μM / half-life at 1 μM: mouse, mouse liver microsomes, pooled, NADPH, 37° C.; for microsomal CLint at 1 h, 1 µM / microsomal CLint at 1 μM: read-out: Microsome Stability Mouse liver microsomes Cl; for half-life at 1 h, 1 µM / half-life at 1 μM: read-out: Microsome Stability Mouse liver microsomes T½. How it is done: (§1) Compounds of the disclosure were screened in microsome stability assays. For the screen, test compounds were incubated at 37° C. with either human liver microsomes (Corning; #452117) or mouse liver microsomes (XenoTech; #M1000), pooled from multiple donors, at 1 μM in the presence of a NADPH regenerating system at 0.5 mg/mL microsomal protein. Positive controls included in the assay were testosterone (3A4 substrate), propafenone (2D6) and diclofenac (2C9). Samples were removed at different time points (0, 5, 10, 20, 30 and 60 minutes) and immediately mixed with cold acetonitrile containing internal standard (IS, 200 ng/mL tolbutamide and 200 ng/mL labetalol). Test compounds incubated with microsomes for 60 minutes without the NADPH regenerating system was also included. A single point for each test condition (n=1) was obtained, and samples were analyzed by LC/MS/MS. Disappearance of the test compound was assessed based on peak area ratios of analyte/IS (no standard curve).
On the technique in general: Liver microsomes are a subcellular fraction often used to study metabolism.

The nature of data set [3]: Microsome stability assay, human liver microsomes. The format is in vitro ADME. Particulars: 1 μM compound, 0.5 mg/mL microsomal protein; for microsomal CLint at 1 h, 1 µM / half-life at 1 h, 1 µM / microsomal CLint at 1 μM / half-life at 1 μM: human, human liver microsomes, pooled, NADPH, 37° C.; for microsomal CLint at 1 h, 1 µM / microsomal CLint at 1 μM: read-out: Microsome Stability Human liver microsomes Cl; for half-life at 1 h, 1 µM / half-life at 1 μM: read-out: Microsome Stability Human liver microsomes T½. How it is done:
as §1

pIC50: −log10 of the molar value. Some results are limits rather than exact numbers.

Sequence of HSD17B13 (Q7Z5P4 other isoform, or with tags, fused parts or gaps): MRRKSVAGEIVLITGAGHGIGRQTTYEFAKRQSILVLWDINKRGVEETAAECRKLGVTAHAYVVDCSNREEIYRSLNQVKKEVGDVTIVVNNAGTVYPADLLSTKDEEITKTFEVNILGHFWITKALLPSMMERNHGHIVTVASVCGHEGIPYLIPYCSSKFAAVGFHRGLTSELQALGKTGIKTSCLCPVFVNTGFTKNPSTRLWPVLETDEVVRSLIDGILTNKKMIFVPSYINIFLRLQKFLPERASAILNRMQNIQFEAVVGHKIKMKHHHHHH

Consider `CCC1CCc2cc(Cl)ccc2C1NC(=O)c1ccc(C(F)(F)F)[nH]c1=O` (centres unmarked) [Compound 297, N-(6-chloro-2-ethyl-1,2,3,4-tetrahydronaphthalen-1-yl)-2-oxo-6-(trifluoromethyl)-1,2-dihydropyridine-3-carboxamide], for which, in data set [1], the pIC50 is 6.96. In data set [2], the “Microsome Stability Mouse liver microsomes % Remaining @60 min” value is 36.10%; the microsomal CLint at 1 h, 1 µM came to 35.4 µL/min/mg; the half-life at 1 h, 1 µM was determined as 39.1 min. Besides, in data set [3], the “Microsome Stability Human liver microsomes % Remaining @60 min” value came out at 1.24%; the microsomal CLint at 1 h, 1 µM is 149 µL/min/mg; the half-life at 1 h, 1 µM is 9.3 min.

As for `Cc1ccc2c(c1)[C@@H](O)CC[C@H]2NC(=O)c1ccc(C(F)(F)F)[nH]c1=O` [Compound 312, N-((1R,4S)-4-hydroxy-6-methyl-1,2,3,4-tetrahydronaphthalen-1-yl)-2-oxo-6-(trifluoromethyl)-1,2-dihydropyridine-3-carboxamide], in data set [1], the pIC50 is 6.35. In addition, in data set [2], the “Microsome Stability Mouse liver microsomes % Remaining @60 min” value was found to be 96.90%, the microsomal CLint at 1 μM was under 9.6 µL/min/mg and the half-life at 1 μM is over 145 min. In addition, in data set [3], the “Microsome Stability Human liver microsomes % Remaining @60 min” value is 78.40%, the microsomal CLint at 1 μM is under 9.6 µL/min/mg and the half-life at 1 μM is over 145 min.

For `CCCC1=Cc2cc(C)ccc2C1NC(=O)c1ccc(C(F)(F)F)[nH]c1=O` (centres unmarked) [Compound 341, N-(5-methyl-2-propyl-1H-inden-1-yl)-2-oxo-6-(trifluoromethyl)-1,2-dihydropyridine-3-carboxamide], in data set [1], the pIC50 is 7.15. In data set [2], the “Microsome Stability Mouse liver microsomes % Remaining @60 min” value was found to be 54.30%; the microsomal CLint at 1 h, 1 µM amounted to 19.4 µL/min/mg; the half-life at 1 h, 1 µM worked out at 71.3 min. Besides, in data set [3], the “Microsome Stability Human liver microsomes % Remaining @60 min” value is recorded as 1.70%; the microsomal CLint at 1 h, 1 µM stood at 132 µL/min/mg; the half-life at 1 h, 1 µM amounted to 10.5 min.

Consider `CCC[C@H]1Oc2ccc(C)cc2[C@@H]1NC(=O)c1ccc(C(F)(F)F)[nH]c1=O` [Compound 353, N-((2R,3S)-5-methyl-2-propyl-2,3-dihydrobenzofuran-3-yl)-2-oxo-6-(trifluoromethyl)-1,2-dihydropyridine-3-carboxamide], for which the pIC50 in data set [1] is 6.28. Also, in data set [2], the “Microsome Stability Mouse liver microsomes % Remaining @60 min” value is given as 28.90%, the microsomal CLint at 1 μM stood at 41.2 µL/min/mg and the half-life at 1 μM was 33.6 min. In data set [3], the “Microsome Stability Human liver microsomes % Remaining @60 min” value was 28.20%, the microsomal CLint at 1 μM amounted to 35.4 µL/min/mg and the half-life at 1 μM worked out at 39.1 min.

`CCC[C@H]1Oc2cc(C)ccc2[C@@H]1NC(=O)c1ccc(C(F)(F)F)[nH]c1=O` [Compound 358, N-((2R,3S)-6-methyl-2-propyl-2,3-dihydrobenzofuran-3-yl)-2-oxo-6-(trifluoromethyl)-1,2-dihydropyridine-3-carboxamide]: the pIC50 in data set [1] is 6.34. Moreover, in data set [2], the “Microsome Stability Mouse liver microsomes % Remaining @60 min” value amounted to 1.01%, the microsomal CLint at 1 μM turned out to be 154 µL/min/mg and the half-life at 1 μM worked out at 9 min. Also, in data set [3], the “Microsome Stability Human liver microsomes % Remaining @60 min” value came to 1%, the microsomal CLint at 1 μM was found to be 154 µL/min/mg and the half-life at 1 μM turned out to be 9 min.

Turning to `CCC[C@@H]1C[C@@H](NC(=O)c2ccc(C(F)(F)F)[nH]c2=O)c2cc(C)ccc2N1` [Compound 361, N-((2R,4R)-6-methyl-2-propyl-1,2,3,4-tetrahydroquinolin-4-yl)-2-oxo-6-(trifluoromethyl)-1,2-dihydropyridine-3-carboxamide], the pIC50 in data set [1] is 6.52. Further, in data set [2], the “Microsome Stability Mouse liver microsomes % Remaining @60 min” value stood at 52.90%, the microsomal CLint at 1 μM turned out to be 19.2 µL/min/mg and the half-life at 1 μM came out at 72.3 min. Further, in data set [3], the “Microsome Stability Human liver microsomes % Remaining @60 min” value came to 60.50%, the microsomal CLint at 1 μM worked out at 17 µL/min/mg and the half-life at 1 μM worked out at 82 min.

Regarding `CC[C@@H]1C[C@H](NC(=O)c2ccc(C(F)(F)F)[nH]c2=O)c2ccc(C)cc2N1` [Compound 366, N-((2R,4S)-2-ethyl-7-methyl-1,2,3,4-tetrahydroquinolin-4-yl)-2-oxo-6-(trifluoromethyl)-1,2-dihydropyridine-3-carboxamide], the pIC50 in data set [1] is 7.22. Moreover, in data set [2], the “Microsome Stability Mouse liver microsomes % Remaining @60 min” value was 87%, the microsomal CLint at 1 μM is under 9.6 µL/min/mg and the half-life at 1 μM is over 145 min. Further, in data set [3], the “Microsome Stability Human liver microsomes % Remaining @60 min” value was 27.30%, the microsomal CLint at 1 μM turned out to be 44.2 µL/min/mg and the half-life at 1 μM is 31.3 min.

Regarding `CCC[C@@H]1C[C@H](NC(=O)c2ccc(C(F)(F)F)[nH]c2=O)c2ccc(C)cc2N1` [Compound 368, N-((2R,4S)-7-methyl-2-propyl-1,2,3,4-tetrahydroquinolin-4-yl)-2-oxo-6-(trifluoromethyl)-1,2-dihydropyridine-3-carboxamide], the pIC50 in data set [1] is 6.43. Further, in data set [2], the “Microsome Stability Mouse liver microsomes % Remaining @60 min” value was 56.20%; the microsomal CLint at 1 h, 1 µM is 18.1 µL/min/mg; the half-life at 1 h, 1 µM came out at 76.4 min. Further, in data set [3], the “Microsome Stability Human liver microsomes % Remaining @60 min” value stood at 51.70%; the microsomal CLint at 1 h, 1 µM came to 23.4 µL/min/mg; the half-life at 1 h, 1 µM stood at 59.3 min.

Turning to `CCC[C@@H]1C[C@@H](NC(=O)c2ccc(C(F)(F)F)[nH]c2=O)c2ccc(C)cc2N1` [Compound 369, N-((2R,4R)-7-methyl-2-propyl-1,2,3,4-tetrahydroquinolin-4-yl)-2-oxo-6-(trifluoromethyl)-1,2-dihydropyridine-3-carboxamide], the pIC50 in data set [1] is 6.96. Moreover, in data set [2], the “Microsome Stability Mouse liver microsomes % Remaining @60 min” value amounted to 95.30%, the microsomal CLint at 1 μM is under 9.6 µL/min/mg and the half-life at 1 μM was over 145 min. In data set [3], the “Microsome Stability Human liver microsomes % Remaining @60 min” value came out at 35.70%; the microsomal CLint at 1 h, 1 µM came out at 30.8 µL/min/mg; the half-life at 1 h, 1 µM came to 45 min.

As to `Cc1ccc2c(c1)[C@H](NC(=O)c1ccc(C(F)(F)F)[nH]c1=O)C[C@@H](C)N2` [Compound 370, N-((2R,4R)-2,6-dimethyl-1,2,3,4-tetrahydroquinolin-4-yl)-2-oxo-6-(trifluoromethyl)-1,2-dihydropyridine-3-carboxamide], the pIC50 in data set [1] is 6.57. Moreover, in data set [2], the “Microsome Stability Mouse liver microsomes % Remaining @60 min” value turned out to be 99.10%, the microsomal CLint at 1 μM was under 9.6 µL/min/mg and the half-life at 1 μM was over 145 min. Besides, in data set [3], the “Microsome Stability Human liver microsomes % Remaining @60 min” value turned out to be 86.70%, the microsomal CLint at 1 μM is under 9.6 µL/min/mg and the half-life at 1 μM was over 145 min.

With `Cc1ccc2c(c1)SC(C)CC2NC(=O)c1ccc(C(F)(F)F)[nH]c1=O` (centres unmarked) [Compound 385, N-(2,7-dimethylthiochroman-4-yl)-2-oxo-6-(trifluoromethyl)-1,2-dihydropyridine-3-carboxamide], the pIC50 in data set [1] was 7.40. Moreover, in data set [2], the “Microsome Stability Mouse liver microsomes % Remaining @60 min” value is listed as 43%; the microsomal CLint at 1 h, 1 µM was 27 µL/min/mg; the half-life at 1 h, 1 µM amounted to 51.3 min. In addition, in data set [3], the “Microsome Stability Human liver microsomes % Remaining @60 min” value is 1%; the microsomal CLint at 1 h, 1 µM is 643 µL/min/mg; the half-life at 1 h, 1 µM was determined as 2.15 min.

The term pIC50 denotes −log10 of the IC50, conventionally taken in molar units.
